Active and inactive are the calls of the source. No cut-off for these calls is given here.
Key:
[1] = target: 72 kDa type IV collagenase (Mus musculus) (UniProt P33434); assay: Inhibition of MMP-2 in mouse fibroblast assessed as reduction in concanavalin-induced MMP-2 activity by measuring gelatin digestion incubated for 24 hrs by SDS-PAGE gel electrophoresis based gelatin zymography analysis; assay type: cell-based
[2] = target: T1, Matrix metalloproteinase-14 (Homo sapiens, UniProt P50281); assay: Inhibition of MMP-14 (unknown origin) using 5-FAM-TDVPNGFHVS (QXL520)-NH2 as fluorogenic substrate preincubated for 10 mins followed by substrate addition and measured for 50 mins by microplate reader assay
[3] = target: T1, Matrix metalloproteinase-14; assay: Inhibition of MMP-14 (unknown origin) using 5-FAM-TDVPNGFHVS (QXL520)-NH2 as fluorogenic substrate at 12.5 to 200 uM preincubated for 10 mins followed by substrate addition and measured for 50 mins by microplate reader assay; conditions: dose 12.5-200 µM, time 60.0 min
[4] = target: T1, Matrix metalloproteinase-14; assay: Inhibition of MMP-14 (unknown origin) using 5-FAM-TDVPNGFHVS (QXL520)-NH2 as fluorogenic substrate at 47.6 uM preincubated for 10 mins followed by substrate addition by primary HTS analysis relative to control
[5] = target: T1, Matrix metalloproteinase-14; assay: Binding affinity to […] sensor chip immobilized MMP-14 catalytic domain (unknown origin) assessed as equilibrium dissociation constant by surface plasmon resonance analysis
[6] = target: T2, Matrix metalloproteinase-9 (Homo sapiens, UniProt P14780); assay: Inhibition of MMP-9 (unknown origin) using QXL520-gamma-Abu-Pro-Cha-Abu-Smc-His-Ala-Dab(5-FAM)-Ala-Lys-NH2 as fluorogenic substrate preincubated for 10 mins followed by substrate addition and measured for 25 mins by microplate reader assay
T2 sequence (P14780 whole entry): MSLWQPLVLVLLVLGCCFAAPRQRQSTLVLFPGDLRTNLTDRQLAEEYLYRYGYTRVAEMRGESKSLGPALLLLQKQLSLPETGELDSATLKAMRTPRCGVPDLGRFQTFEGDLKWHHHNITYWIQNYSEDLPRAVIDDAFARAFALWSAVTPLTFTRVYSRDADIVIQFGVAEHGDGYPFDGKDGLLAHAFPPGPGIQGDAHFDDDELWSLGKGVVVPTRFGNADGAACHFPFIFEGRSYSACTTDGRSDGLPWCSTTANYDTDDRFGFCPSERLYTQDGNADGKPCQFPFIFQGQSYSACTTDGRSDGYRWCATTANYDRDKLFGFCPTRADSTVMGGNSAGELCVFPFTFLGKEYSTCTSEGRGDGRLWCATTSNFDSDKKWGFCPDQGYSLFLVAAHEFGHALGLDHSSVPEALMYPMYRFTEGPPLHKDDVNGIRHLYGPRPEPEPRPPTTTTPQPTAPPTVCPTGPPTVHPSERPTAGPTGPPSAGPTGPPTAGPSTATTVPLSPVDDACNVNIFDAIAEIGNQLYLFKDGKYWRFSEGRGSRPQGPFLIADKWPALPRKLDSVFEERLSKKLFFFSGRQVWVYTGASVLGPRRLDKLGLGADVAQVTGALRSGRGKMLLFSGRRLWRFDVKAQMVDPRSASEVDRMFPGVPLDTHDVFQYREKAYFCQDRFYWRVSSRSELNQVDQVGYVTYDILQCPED

[7] = Cytotoxicity against human HUVEC cells assessed as cell viability upto 100 uM incubated for 4 hrs by MTS assay; assay type: toxicity, cell-based; conditions: read-out: Activity
[8] = target: 72 kDa type IV collagenase (Homo sapiens) (UniProt P08253); assay: Inhibition of MMP-2 (unknown origin) using QXL520-gamma-Abu-Pro-Cha-Abu-Smc-His-Ala-Dab(5-FAM)-Ala-Lys-NH2 as fluorogenic substrate at 1 to 100 uM preincubated for 10 mins followed by substrate addition and measured for 25 mins by microplate reader assay; conditions: dose 1-100 µM, time 35.0 min
72 kDa type IV collagenase (Homo sapiens), sequence (P08253 110-660 limits assumed): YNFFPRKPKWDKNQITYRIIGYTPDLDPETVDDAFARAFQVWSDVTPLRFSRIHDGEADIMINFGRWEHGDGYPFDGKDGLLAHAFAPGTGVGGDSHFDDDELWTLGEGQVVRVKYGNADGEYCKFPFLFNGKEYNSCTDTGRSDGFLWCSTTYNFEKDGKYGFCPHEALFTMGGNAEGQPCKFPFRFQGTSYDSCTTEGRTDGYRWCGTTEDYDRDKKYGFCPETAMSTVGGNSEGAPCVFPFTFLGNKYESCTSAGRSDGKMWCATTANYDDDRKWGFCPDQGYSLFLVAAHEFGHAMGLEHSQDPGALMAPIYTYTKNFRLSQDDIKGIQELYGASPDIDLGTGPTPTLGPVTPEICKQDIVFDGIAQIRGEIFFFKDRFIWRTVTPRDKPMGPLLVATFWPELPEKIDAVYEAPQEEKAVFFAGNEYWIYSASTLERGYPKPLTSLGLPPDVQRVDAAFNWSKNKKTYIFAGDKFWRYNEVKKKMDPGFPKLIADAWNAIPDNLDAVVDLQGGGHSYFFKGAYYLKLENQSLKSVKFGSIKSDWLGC

[9] = target: T3, Matrilysin (Homo sapiens) (UniProt P09237); assay: Inhibition of MMP-7 (unknown origin) using QXL520-gamma-Abu-Pro-Cha-Abu-Smc-His-Ala-Dab(5-FAM)-Ala-Lys-NH2 as fluorogenic substrate at 1 to 100 uM preincubated for 10 mins followed by substrate addition and measured for 25 mins by microplate reader assay; conditions: dose 1-100 µM, time 35.0 min
T3 sequence (whole entry): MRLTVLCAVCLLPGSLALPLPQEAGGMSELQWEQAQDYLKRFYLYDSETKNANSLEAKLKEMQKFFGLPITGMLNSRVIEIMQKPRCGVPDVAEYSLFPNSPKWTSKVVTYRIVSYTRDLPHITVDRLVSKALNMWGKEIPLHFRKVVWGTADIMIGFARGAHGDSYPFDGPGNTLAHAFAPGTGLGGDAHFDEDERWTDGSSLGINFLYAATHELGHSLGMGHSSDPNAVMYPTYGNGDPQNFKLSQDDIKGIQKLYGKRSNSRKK

Collagenase 3 [10] = target: T4, Collagenase 3 (Homo sapiens, UniProt P45452); assay: Inhibition of MMP-13 (unknown origin) using QXL520-gamma-Abu-Pro-Cha-Abu-Smc-His-Ala-Dab(5-FAM)-Ala-Lys-NH2 as fluorogenic substrate preincubated for 10 mins followed by substrate addition and measured for 25 mins by microplate reader assay
[11] = target: T2, Matrix metalloproteinase-9; assay: Inhibition of MMP-9 (unknown origin) using QXL520-gamma-Abu-Pro-Cha-Abu-Smc-His-Ala-Dab(5-FAM)-Ala-Lys-NH2 as fluorogenic substrate at 1 to 100 uM preincubated for 10 mins followed by substrate addition and measured for 25 mins by microplate reader assay; conditions: dose 1-100 µM, time 35.0 min
[12] = target: 72 kDa type IV collagenase (Homo sapiens) (UniProt P08253); assay: Inhibition of MMP-2 (unknown origin) using QXL520-gamma-Abu-Pro-Cha-Abu-Smc-His-Ala-Dab(5-FAM)-Ala-Lys-NH2 as fluorogenic substrate at 100 uM preincubated for 10 mins followed by substrate addition and measured for 25 mins by microplate reader assay; conditions: time 35.0 min
Collagenase 3 [13] = target: T4, Collagenase 3; assay: Inhibition of MMP-13 (unknown origin) using QXL520-gamma-Abu-Pro-Cha-Abu-Smc-His-Ala-Dab(5-FAM)-Ala-Lys-NH2 as fluorogenic substrate at 1 to 100 uM preincubated for 10 mins followed by substrate addition and measured for 25 mins by microplate reader assay; conditions: dose 1-100 µM, time 35.0 min
[14] = target: T3, Matrilysin (Homo sapiens); assay: Inhibition of MMP-7 (unknown origin) using QXL520-gamma-Abu-Pro-Cha-Abu-Smc-His-Ala-Dab(5-FAM)-Ala-Lys-NH2 as fluorogenic substrate at 100 uM preincubated for 10 mins followed by substrate addition and measured for 25 mins by microplate reader assay; conditions: time 35.0 min
Collagenase 3 [15] = target: T4, Collagenase 3; assay: Inhibition of MMP-13 (unknown origin) using QXL520-gamma-Abu-Pro-Cha-Abu-Smc-His-Ala-Dab(5-FAM)-Ala-Lys-NH2 as fluorogenic substrate at 100 uM preincubated for 10 mins followed by substrate addition and measured for 25 mins by microplate reader assay; conditions: time 35.0 min
[16] = target: T2, Matrix metalloproteinase-9; assay: Inhibition of MMP-9 (unknown origin) using QXL520-gamma-Abu-Pro-Cha-Abu-Smc-His-Ala-Dab(5-FAM)-Ala-Lys-NH2 as fluorogenic substrate at 100 uM preincubated for 10 mins followed by substrate addition and measured for 25 mins by microplate reader assay; conditions: time 35.0 min

72 kDa type IV collagenase (Mus musculus), sequence (P33434 whole entry): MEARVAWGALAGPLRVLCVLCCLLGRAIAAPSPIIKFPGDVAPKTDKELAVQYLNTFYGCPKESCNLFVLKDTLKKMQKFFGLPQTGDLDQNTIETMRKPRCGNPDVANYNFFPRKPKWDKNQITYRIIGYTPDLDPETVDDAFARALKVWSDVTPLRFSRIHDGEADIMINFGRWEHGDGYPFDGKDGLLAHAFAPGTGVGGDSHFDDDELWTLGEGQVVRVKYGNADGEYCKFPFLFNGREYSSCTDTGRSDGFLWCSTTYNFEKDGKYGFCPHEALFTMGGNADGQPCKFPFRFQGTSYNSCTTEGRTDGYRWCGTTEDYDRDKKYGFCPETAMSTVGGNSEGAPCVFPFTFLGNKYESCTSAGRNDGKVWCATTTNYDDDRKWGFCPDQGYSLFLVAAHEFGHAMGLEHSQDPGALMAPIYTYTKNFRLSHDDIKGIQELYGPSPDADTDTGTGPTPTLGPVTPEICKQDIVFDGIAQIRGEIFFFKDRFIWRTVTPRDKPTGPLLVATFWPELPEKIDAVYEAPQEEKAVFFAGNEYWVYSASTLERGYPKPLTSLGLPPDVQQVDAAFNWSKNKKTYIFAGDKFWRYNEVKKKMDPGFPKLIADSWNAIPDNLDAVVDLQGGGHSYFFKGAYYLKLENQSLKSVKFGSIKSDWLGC

| SMILES | inhibition [1] | IC50 [2] | inhibition [3] | inhibition [4] | Kd [5] | IC50 [6] | viability at 4 h, up to 100 µM [7] | inhibition [8] | inhibition [9] | IC50 (Collagenase 3 [10]) | inhibition [11] | inhibition [12] | inhibition (Collagenase 3 [13]) | inhibition [14] | inhibition (Collagenase 3 [15]) | inhibition [16] |
| --- | --- | --- | --- | --- | --- | --- | --- | --- | --- | --- | --- | --- | --- | --- | --- | --- |
| Nc1cc(Cl)c2cccnc2c1O | Active | 71.2 µM | Dose-Dependent Effect | – | – | – | – | – | – | – | – | – | – | – | – | – |
| CCCC(C)C1(CC)C(=O)NC(=O)NC1=O (stereo unspecified) | – | – | – | > 85% | – | – | – | – | – | – | – | – | – | – | – | – |
| Oc1c(Cl)cc(Cl)c2cccnc12 [CHLOROXINE] | Active | 25.6 µM | – | Active | 2400 nM | 15.9 µM | > 95% | inactive | inactive | 19.6 µM | – | – | – | – | – | – |
| Oc1c(I)cc(Cl)c2cccnc12 [CLIOQUINOL] | Active | 26.9 µM | – | 83% | 1200 nM | – | > 95% | inactive | inactive | – | inactive | < 5% | inactive | < 5% | < 5% | < 5% |

— ChEMBL document CHEMBL5257103, “Identification of small molecule inhibitors against MMP-14 via High-Throughput screening” (Bioorg Med Chem, 2023)
